These results are taken from patent US9994915B2, “miR-211 expression and related pathways in human melanoma” (Sanford-Burnham Medical Research Institute, priority 2010, dated 2018).

What all share (assay type): cell-based, human
In one data set the test system is KCNMA1 protein. Description: western blot of KCNMA1 protein in WM1552C lines. To be noted: stably transfected WM1552C lines. The method, then:
qRT-PCR analyses were then run to determine whether the induced expression of miR-211 in melanoma cells could reduce KCNMA1 transcript levels. […] To further address whether KCNMA1 mRNA levels reflected KCNMA1 protein expression, a western blot analysis was performed looking for KCNMA1 in cell extracts obtained from: 1) WM1552C, 2) WM1552C/VO (WM1552C cells with a stably-incorporated empty expression vector), 3) WM1552C/211(400), 4) WM1552C/211(800), and 5) WM1552C/KC KO (WM1552C cells with a stably-expressing shRNA against the KCNMA1 mRNA) (FIG. 6C). […] To further confirm our observations, we measured the correlation between miR-211 expression and KCNMA1 protein levels (FIG. 6D). […] To confirm that this expression correlation occurred in non-transformed cells in addition to cancerous cell lines, the effect of miR-211 inhibition on the expression of KCNMA1 in melanocytes was examined. Melanocytes were transfected with anti-miR-211 inhibitors (Exiqon) and the protein expression of KCNMA1 was measured. […]
2.5×10^5 cells WM1552C/211(800) cells were seeded into wells of a 6-well plate. […] After 48 hours, the cells were harvested by trypsinization and counted using an automated cell counter (Cellometer®, Nexcelom Bioscience). […]
A KCNMA1 constitutively-expressing plasmid was transiently transfected into WM1552C/211(800) cells. […] KCNMA1 protein expression levels were then detected by KCNMA1 antibody. […]
(Immunoblotting shows a protein as a band on a membrane.)

In another data set the test system is IGFBP5 mRNA. Description: Next Gen sequencing of IGFBP5 mRNA in WM1552C cells. The method, then: To extend the findings of the MITF knock-down study and to further establish IGFBP5 as a miR-211 target, the effect of miR-211 expression on IGFBP5 mRNA was determined. WM1552C cells were transfected with either an empty vector or the vector encoding and expressing miR-211. Additionally, untransfected WM1552C cells were treated with 5-Aza-2′deoxycytidine (“5-Aza”) to investigate whether miR-211 down-regulates IGFBP5 mRNA production through a genomic methylation mechanism.

The next data set relates to A375 cells. In words: cell counts in hypoxic chamber (2% O2), A375/211. To be noted: A375/211 cells, hypoxic chamber 2% O2 (parental A375 about 68%). From the text:
To test under actual hypoxic conditions, both cell lines were placed into a hypoxic chamber containing 2% O2 prior to determination of cell counts. […] As in the DFO-simulated hypoxic condition assay, the presence of miR-211 caused the effect to be greatly exacerbated, reducing survival to about 29%.

In the case of “miR-211: pre-miR-211 sequence stably expressed from plasmid pcDNA4/miR-211 in melanoma cells; mature sequence UUCCCUUUGUCAUCCUUCGCCU (SEQ ID NO: 15) (listed as Homo sapiens)”, the “KCNMA1 protein levels compared to WM1552C/VO or untransfected WM1552C” value in the data set with KCNMA1 protein is listed as “significantly reduced”. Further, the “IGFBP5 mRNA expression” value with IGFBP5 mRNA is recorded as “almost to undetectably levels”. In addition, the “survival vs normoxic condition cells” value in the data set on A375 cells was “about 29%”.
